In US20200121695A1, “COMPOSITIONS AND METHODS FOR TREATING ITCH, SKIN INFLAMMATION, AND PRURITUS” (priority 2017, published 2020):

Test: Case report: with menstrual-cycle itching, elevated ALP and PBC/AIH overlap syndrome
Assay type: in vivo, human
Conditions: person, Ursodiol 300 mg three times a day plus mycophenolate mofetil 500 mg four times a day for 1 year, together with replacement of Nuva Ring by copper IUD and dietary changes
Text: The itching was predominantly concentrated on hands, feet, back, and stomach area, and the symptoms disappeared as soon as menstruation began. They previously used Nuva Ring for about three years, followed by approximately 5.5 year hiatus. The medical history and gynecological clinical examination were not unusual, with the exception of elevated liver enzymes having been discovered about two years prior to visit. […] The initial treatment thus comprised short-term moderate amounts of Prednisone, with the regiment starting about the time of re-start of the Nuva Ring use. Approximately two months after the start of Prednisone regimen the patient was diagnosed with an overlap syndrome of Primary Biliary Cholangitis/Cirrhosis (PBC) and Autoimmune Hepatitis (AIH). […] New treatment regimen was implemented. Nuva Ring was replaced with a non-hormonal intrauterine device (copper) to enable treatment with immunosuppressive drugs. Additionally steroid drugs, Ursodiol (300 mg three times a day) and mycophenolate mofetil (Cellcept, 500 mg, four times a day), regimen was started in order to reduce AST levels, and continued for 1 year. Finally dietary changes eliminating foods that are rich in zinc and vitamin B12 were effected.

Row | SMILES | itching symptoms at the time of menstruation
1 | C[C@H](CCC(=O)O)[C@H]1CC[C@H]2[C@@H]3[C@@H](O)C[C@@H]4C[C@H](O)CC[C@]4(C)[C@H]3CC[C@]12C [Ursodiol] | significant reduction of the itching symptoms
2 | COc1c(C)c2c(c(O)c1C/C=C(\C)CCC(=O)OCCN1CCOCC1)C(=O)OC2 [mycophenolate mofetil] | significant reduction of the itching symptoms
